Assay results from ChEMBL document CHEMBL5325407, “Structure-based development of potent Plasmodium falciparum M1 and M17 aminopeptidase selective and dual inhibitors via S1'-region optimisation” (Eur J Med Chem, 2023).
In brackets after ≈: the same amount, converted by molar mass. Activity calls are given as the source filed them. The rule behind the calls is not given here.

Tests used:
[1] = Metabolic stability in mouse liver microsomes assessed as half life measured for 60 mins in presence of NADPH; format: ADME, Microsome
Plasmodium falciparum [2] = assay: Antiplasmodial activity against drug-sensitive Plasmodium falciparum 3D7 infected in Red blood cell assessed as growth inhibition measured after 72 hrs by LDH assay; format: functional, organism-based; conditions: 3D7, Erythrocyte
[3] = Inhibition of TEV-fused Plasmodium falciparum M17 aminopeptidase (192 to 1085 residues) expressed in Escherichia coli Rosetta 2 (DE3) cells using alanine para-nitroanilide as substrate assessed as apparent inhibition constant measured after 30 mins by spectrophotometric analysis; conditions: read-out: Ki(app)
[4] = Kinetic solubility of the compound in 0.01 M HCL at pH 2.0 measured after 30 mins by nephelometric analysis; format: physicochemical; conditions: read-out: Kinetic_solubility
[5] = Inhibition of TEV-fused Plasmodium falciparum M1 aminopeptidase (192 to 1085 residues) expressed in Escherichia coli Rosetta 2 (DE3) cells using alanine para-nitroanilide as substrate assessed as apparent inhibition constant measured after 30 mins by spectrophotometric analysis; conditions: read-out: Ki(app)
[6] = Kinetic solubility of the compound in phosphate buffer at pH 6.5 measured after 30 mins by nephelometric analysis; format: physicochemical; conditions: read-out: Kinetic_solubility
[7] = Metabolic stability in human liver microsomes assessed as half life measured for 60 mins in presence of NADPH; format: ADME, Microsome
[8] = (§1) Inhibition of C-terminal 6-His tagged Plasmodium falciparum M1 aminopeptidase (195 to 1085 residues) expressed in Escherichia coli BL21(DE3) cells using H-Leu-NHMec as substrate assessed as apparent inhibition constant preincubated for 10 mins followed by substrate addition by spectrofluorimetric analysis; conditions: read-out: Ki(app)
[9] = as §1, with “M17” for “M1”, “(85” for “(195”, “605” for “1085”, “BL21 (DE3)” for “BL21(DE3)”; conditions: read-out: Ki(app)
[10] = as §1, with “initial” for “apparent”
Plasmodium falciparum [11] = assay: Inhibition of C-terminal 6-His tagged Plasmodium falciparum M17 aminopeptidase (85 to 605 residues) expressed in Escherichia coli BL21 (DE3) cells using H-Leu-NHMec as substrate at less than 500 nM preincubated for 10 mins followed by substrate addition by spectrofluorimetric analysis
Plasmodium falciparum [12] = assay: Inhibition of C-terminal 6-His tagged Plasmodium falciparum M1 aminopeptidase (195 to 1085 residues) expressed in Escherichia coli BL21(DE3) cells using H-Leu-NHMec as substrate at less than 500 nM preincubated for 10 mins followed by substrate addition by spectrofluorimetric analysis

| SMILES | EC50 (Plasmodium falciparum [2]) [nM] | Ki [8] [nM] | Ki [9] [nM] | further results |
| --- | --- | --- | --- | --- |
| CC(C)(C)CC(=O)NC(C(=O)NO)c1ccc(-c2cc(F)c(F)c(F)c2)cc1 (stereo not given) | 63 |  |  | half-life [1]: 1.5 h; Ki [3]: 101 nM; solubility kinetic at 0.5 h [4]: 12.5 µg/mL (≈ 31.7 µM); Ki [5]: 269 nM; solubility kinetic at 0.5 h [6]: 12.5 µg/mL (≈ 31.7 µM); half-life [7]: 2.48 h |
| O=C(CNc1cc(F)cc(F)c1)NC(C(=O)NO)c1ccc(-c2cc(F)c(F)c(F)c2)cc1 (stereo not given) | 675 | 131 | > 500 | Ki [10]: 513 nM |
| O=C(CNc1ccccc1F)NC(C(=O)NO)c1ccc(-c2cc(F)c(F)c(F)c2)cc1 (stereo not given) | 285 | > 500 | > 500 |  |
| O=C(CNc1ccccc1)NC(C(=O)NO)c1ccc(Br)cc1 (stereo not given) | 175 | 36 | > 500 |  |
| O=C(CNc1ccc2cc[nH]c2c1)NC(C(=O)NO)c1ccc(-c2cc(F)c(F)c(F)c2)cc1 (stereo not given) | 220 | 146 | > 500 |  |
| O=C(CNc1ccc2cc[nH]c2c1)NC(C(=O)NO)c1ccc(Br)cc1 (stereo not given) | 155 | 35 | > 500 |  |
| COc1cccc(NCC(=O)NC(C(=O)NO)c2ccc(Br)cc2)c1 (stereo not given) | 102 | 72 | > 500 | inhibition (Plasmodium falciparum [11]): inactive |
| CN(CC(=O)NC(C(=O)NO)c1ccc(Br)cc1)c1ccccc1 (stereo not given) | 145 | 18 | > 500 |  |
| O=C(CCc1ccccc1)NC(C(=O)NO)c1ccc(-c2cc(F)c(F)c(F)c2)cc1 (stereo not given) | 460 | 246 | 70 |  |
| O=C(CNc1cccc(F)c1)NC(C(=O)NO)c1ccc(Br)cc1 (stereo not given) | 135 | 21 | > 500 |  |
| O=C(CSc1ccccc1)NC(C(=O)NO)c1ccc(-c2cc(F)c(F)c(F)c2)cc1 (stereo not given) | 430 | 195 | 238 |  |
| CC1(C(=O)NC(C(=O)NO)c2ccc(-c3cc(F)c(F)c(F)c3)cc2)COC1 (stereo not given) | 610 | 439 | 294 |  |
| CC(C)(O)CC(=O)NC(C(=O)NO)c1ccc(-c2cc(F)c(F)c(F)c2)cc1 (stereo not given) | 155 | 154 | 90 |  |
| O=C(CN1CCC1)NC(C(=O)NO)c1ccc(-c2cc(F)c(F)c(F)c2)cc1 (stereo not given) | 1800 | 263 | > 500 |  |
| O=C(CNc1cccc(F)c1)NC(C(=O)NO)c1ccc(Cl)cc1 (stereo not given) | 175 | 49 | > 500 |  |
| O=C(NC(C(=O)NO)c1ccc(-c2cc(F)c(F)c(F)c2)cc1)C1CCOC1 (stereo not given) | 605 | 259 | 307 |  |
| O=C(COc1ccccc1)NC(C(=O)NO)c1ccc(-c2cc(F)c(F)c(F)c2)cc1 (stereo not given) | 1450 | 390 | 137 |  |
| COc1ccccc1NCC(=O)NC(C(=O)NO)c1ccc(Br)cc1 (stereo not given) | 145 | 128 | > 500 | inhibition (Plasmodium falciparum [11]): inactive |
| COc1ccc(NCC(=O)NC(C(=O)NO)c2ccc(Br)cc2)cc1 (stereo not given) | 114 | 88 | > 500 | inhibition (Plasmodium falciparum [11]): inactive |
| O=C(CNc1ccc(F)cc1)NC(C(=O)NO)c1ccc(Cl)cc1 (stereo not given) | 220 | 49 | > 500 |  |
| O=C(CNc1ccc(F)cc1)NC(C(=O)NO)c1ccc(Br)cc1 (stereo not given) | 250 | 38 | > 500 |  |
| O=C(NC(C(=O)NO)c1ccc(-c2cc(F)c(F)c(F)c2)cc1)C1CCCN1 (stereo not given) | 625 | 330 | > 500 |  |
| O=C(COc1ccccc1)NC(C(=O)NO)c1ccc(Br)cc1 (stereo not given) | 620 | > 500 | 230 |  |
| O=C(NC(C(=O)NO)c1ccc(-c2cc(F)c(F)c(F)c2)cc1)c1cc2ccccc2[nH]1 (stereo not given) |  | > 500 | > 500 | inhibition (Plasmodium falciparum [11]): inactive; inhibition (Plasmodium falciparum [12]): inactive |
| CC(C)NC(=O)NC(C(=O)NO)c1ccc(-c2cc(F)c(F)c(F)c2)cc1 (stereo not given) | 285 | > 500 | 120 |  |
| O=C(CN1CCCC1)NC(C(=O)NO)c1ccc(-c2cc(F)c(F)c(F)c2)cc1 (stereo not given) | 725 | 456 | > 500 |  |
| O=C(CNc1ccccc1F)NC(C(=O)NO)c1ccc(Br)cc1 (stereo not given) | 155 | 26 | > 500 |  |
